Drawing on patent US12577241B2, “Polycyclic pyridopyrazine derivative” (Shionogi & Co., Ltd., priority 2019, dated 2026), this text covers EC50 for 34 compounds.

pEC50: −log10 of the molar value.

In the first experiment the test system is HIV. Description: Test Example 1: Anti-HIV activity (MT-4 cells, CellTiter-Glo). Format: cell-based. Particulars: 4 days culture, CellTiter-Glo luminescence, read-out: EC50 (50% HIV inhibitory concentration). As to the method: Test Example 1: Anti-HIV Activity
Serial dilutions of a test sample were prepared in a 384-well microplate by a dispensing machine. 6.25×10^4 cells/mL of a MT-4 cell suspension was dispensed at 20 μL/well to the plate containing the test sample. Then, an HIV virus solution was dispensed at 20 μL/well. The plate was mixed with a plate mixer and cultured for 4 days in a CO2 incubator. On day 4 of culture, CellTiter-Glo or CellTiter-Glo 2.0 was dispensed at 20 μL/well. The plate was reacted while being stirred with the plate mixer at room temperature for about 15 minutes. The amount of luminescence of the plate after the reaction was measured with a microplate reader. A 50% HIV inhibitory concentration (EC50) was determined from a concentration-dependent curve using the following 4 parameter logistic curve fitting model. y=A+((B−A)/(1+((C/x)^D))) • A=minimum rate of inhibition (negative control, 0%) • B=maximum rate of inhibition (positive control, 100%) • C=compound concentration at an inflection point • D=slope coefficient • x=compound concentration • y=rate of inhibition (%) (Results)
For `CCN1C(=O)c2c(O)c(=O)c(C(=O)NCc3cccc(Cl)c3F)cn2[C@H]2CC(F)(F)C[C@H]21` [Compound I-001], the pEC50 is 8.85. Same read-out and setting: as for `CCN1C(=O)c2c(O)c(=O)c(C(=O)NCc3cccc(Cl)c3F)cn2[C@H]2[C@H](COC)CC[C@H]21` [Compound I-013], the figure is 8.60.

Still in this experiment, the particulars now being: Human immunodeficiency virus 1, MT4, 96 h, 4 days culture, CellTiter-Glo luminescence, read-out: EC50 (50% HIV inhibitory concentration).
As to `CCN1C(=O)c2c(O)c(=O)c(C(=O)NCc3c(F)cc(F)cc3F)cn2[C@H]2CC(F)(F)C[C@H]21` [Compound I-002], the pEC50 is 8.82. On the same count and under the same terms, as for `CN1C(=O)c2c(O)c(=O)c(C(=O)NCc3nccc(Cl)c3F)cn2[C@H]2CCCC[C@H]21` [Compound I-004], the figure is 8.48; as for `CCN1C(=O)c2c(O)c(=O)c(C(=O)NCc3c(F)cc(F)cc3F)cn2[C@@H]2[C@H]1CCCC2(F)F` [Compound I-006], 9.20. Still for that read-out and setting: then `CCN1C(=O)c2c(O)c(=O)c(C(=O)NCc3cccc(Cl)c3F)cn2[C@H]2CCCC(F)(F)[C@H]21` [Compound I-007], with 9.15; and `CCN1C(=O)c2c(O)c(=O)c(C(=O)NCc3c(F)cc(F)cc3F)cn2[C@H]2CCCC(F)(F)[C@H]21` [Compound I-008], with 9.28; and `CCN1C(=O)c2c(O)c(=O)c(C(=O)NCc3c(F)cc(F)cc3F)cn2[C@H]2[C@@H]3CC[C@@H](C3)[C@H]21` [Compound I-010], with 8.28. For the compound `CCN1C(=O)c2c(O)c(=O)c(C(=O)NCc3cccc(Cl)c3F)cn2[C@H]2CCC(F)(F)C[C@H]21` [Compound I-011], the pEC50 was 8.05. In the case of `CCN1C(=O)c2c(O)c(=O)c(C(=O)NCc3c(F)cc(F)cc3F)cn2[C@H]2CCC(F)(F)C[C@H]21` [Compound I-012], the pEC50 was 9.03. As for `CCN1C(=O)c2c(O)c(=O)c(C(=O)NCc3cccc(Cl)c3F)cn2[C@H]2C[C@@H](COC)C[C@H]21` [Compound I-015], the pEC50 was 8.60. For the compound `CN1C(=O)c2c(O)c(=O)c(-c3nnc(Cc4ccc(F)cc4F)s3)cn2[C@H]2CCCC[C@H]21` [Compound I-018], the pEC50 was 8.64. Same read-out and setting: as for `CCN1C(=O)c2c(O)c(=O)c(-c3nnc(Cc4ccc(F)cc4F)s3)cn2[C@H]2[C@@H]3CC[C@@H](C3)[C@H]21` [Compound I-019], the figure is 8.09. On the same count and under the same terms, as for `CCN1C(=O)c2c(O)c(=O)c(-c3nnc(Cc4ccc(F)cc4F)s3)cn2[C@H]2CCCC(F)(F)[C@H]21` [Compound I-021], the figure is 8.44; as for `CCN1C(=O)c2c(O)c(=O)c(-c3nnc(Cc4ccc(F)cc4F)s3)cn2[C@H]2CCC(F)(F)C[C@H]21` [Compound I-023], 8.34; as for `CCN1C(=O)c2c(O)c(=O)c(C(=O)NCc3cccc(Cl)c3F)cn2[C@H]2CCCC[C@H]21` [Compound I-024], 8.72.

Take `CCN1C(=O)c2c(O)c(=O)c(C(=O)NCc3ccc(F)cc3F)cn2[C@H]2CCCC[C@H]21` [Compound I-025]: the pEC50 is 8.68.

Consider `CCN1C(=O)c2c(O)c(=O)c(C(=O)NCc3c(F)cc(F)cc3F)cn2[C@H]2CCCC[C@H]21` [Compound I-026], for which the pEC50 is 8.89. Turning to `CN1C(=O)c2c(O)c(=O)c(C(=O)NCc3c(F)cc(F)cc3F)cn2[C@H]2CCCC[C@H]21` [Compound I-027], the pEC50 was 9.15. On to `CN1C(=O)c2c(O)c(=O)c(C(=O)NCc3cccc(Cl)c3F)cn2[C@H]2CCCC[C@H]21` [Compound I-028], for which the pEC50 was 8.92. On the same count and under the same terms, then `CCN1C(=O)c2c(O)c(=O)c(C(=O)NCc3cccc(Cl)c3F)cn2[C@H]2CCC[C@H]21` [Compound I-029], with 8.66. With `CCN1C(=O)c2c(O)c(=O)c(C(=O)NCc3c(F)cc(F)cc3F)cn2[C@H]2CCC[C@H]21` [Compound I-030], the pEC50 is 8.59.

In the next experiment the test system is HIV. The experiment in a line: Test Example 1B: Anti-HIV activity (MT-4 cells, MTT). The class given is cell-based. The note with it: Human immunodeficiency virus 1, MT4, 96 h, 4 days culture, MTT absorbance, read-out: EC50 (50% HIV inhibitory concentration). As to the method: Test Example 1B: Anti-HIV Activity
Serial dilutions of a test sample were prepared in a 96-well microplate (50 μL/well). 2.5×10^5 cells/mL of a MT-4 cell suspension was dispensed at 100 μL/well to the plate containing the test sample. Then, an HIV virus solution was dispensed at 50 μL/well. The plate was mixed with a plate mixer and cultured for 4 days in a CO2 incubator. An MTT (3-(4,5-dimethylthiazol-2-yl)-2,5-diphenyltetrazolium bromide) solution was dispensed at 30 μL/well. The plate was reacted for 1 hour in a CO2 incubator. 150 μL of the supernatant was removed from each well so as not to take up the cells. 150 μL of a cell lysis solution was added to each well and well mixed with a plate mixer until the cells were completely lysed. The absorbance of the mixed plate was measured at two wavelengths of 560 nm and 690 nm using a microplate reader. A 50% HIV inhibitory concentration (EC50) was determined from a concentration-dependent curve using the following 4 parameter logistic curve fitting model. y=A+((B−A)/(1+(C/x)^D)) • A=minimum rate of inhibition (negative control, 0%) • B=maximum rate of inhibition (positive control, 100%) • C=compound concentration at an inflection point • D=slope coefficient • x=compound concentration • y=rate of inhibition (%) (Results)
For `CCN1C(=O)c2c(O)c(=O)c(C(=O)NCc3cccc(Cl)c3F)cn2[C@H]2Cc3ccccc3[C@H]21` [Compound I-033], the pEC50 was 8.01. As to `CCN1C(=O)c2c(O)c(=O)c(C(=O)NCc3nccc(Cl)c3F)cn2[C@H]2Cc3ccccc3[C@H]21` [Compound I-034], the pEC50 was 7.92. Same read-out and setting: then `CCN1C(=O)c2c(O)c(=O)c(C(=O)NCc3ccc(F)cc3F)cn2[C@H]2Cc3ccccc3[C@H]21` [Compound I-035], with 8.27; and `CCN1C(=O)c2c(O)c(=O)c(C(=O)NCc3cccc(Cl)c3F)cn2[C@H]2CCC3(CC3)C[C@H]21` [Compound I-036], with 8.15. Same read-out and setting: then `CCN1C(=O)c2c(O)c(=O)c(C(=O)NCc3ccc(F)cc3F)cn2[C@H]2[C@@H]1CCC2(F)F` [Compound I-037], with 8.44; and `CCN1C(=O)c2c(O)c(=O)c(C(=O)NCc3ccc(F)cc3F)cn2[C@@H]2[C@H]1CCC2(F)F` [Compound I-038], with 8.37.

In the case of `CCN1C(=O)c2c(O)c(=O)c(C(=O)NCc3nccc(Cl)c3F)cn2[C@H]2[C@@H]1CCC2(F)F` [Compound I-039], the pEC50 was 8.01. Same read-out and setting: then `CCN1C(=O)c2c(O)c(=O)c(C(=O)NCc3nccc(Cl)c3F)cn2[C@@H]2[C@H]1CCC2(F)F` [Compound I-040], with 7.89; and `CCN1C(=O)c2c(O)c(=O)c(C(=O)NCc3nccc(Cl)c3F)cn2[C@@H]2CC(F)(F)CC[C@@H]21` [Compound I-041], with 7.92. Same read-out and setting: as for `CCN1C(=O)c2c(O)c(=O)c(C(=O)NCc3nccc(Cl)c3F)cn2[C@H]2CC(F)(F)CC[C@H]21` [Compound I-042], the figure is 8.10; as for `CCN1C(=O)c2c(O)c(=O)c(C(=O)NCc3cccc(Cl)c3F)cn2[C@H]2[C@@H]1[C@@H]1CC[C@H]2O1` [Compound I-043], 8.21.

In the case of `CCN1C(=O)c2c(O)c(=O)c(C(=O)NCc3cccc(Cl)c3F)cn2[C@@H]2[C@H]1[C@H]1CC[C@@H]2O1` [Compound I-044], the pEC50 is 8.15.
